The values that follow are results of earlier work, collected in article PMC4895201 (Journal of natural products, 2009).

In data set [1] the test system is breast and prostate xenografts. To be noted: compared with KF (3).
Data set [2] has as its system epidermal growth factor receptor (ErbB family). To be noted: early research.

For “(4S)- methylhexanoic kahalalide F [isoKF (4)]”, the “in vivo efficacy against breast and prostate xenografts” value in data set [1] is “enhanced efficacy against breast and prostate xenografts”. Besides, in the data set on various solid cell lines, the “antitumor activity, in vitro and in vivo” value is “significant in vitro and in vivo antitumor activity against various solid cell lines”.
Take kahalalide F [KF (3)]: the “antitumor activity, in vitro and in vivo” value in the data set on various solid cell lines was “significant in vitro and in vivo antitumor activity against various solid cell lines”. In data set [2], the “blockade of epidermal growth factor receptor (ErbB family)” value was “blocked the epidermal growth factor receptor (ErbB family)”.
